In patent publication US10273206B2 (ALLERGAN, INC., priority 2014, dated 2019):
Counter-ions that a name gives are not always drawn. Like-named read-outs stand apart in the source and are kept apart here.

What was measured:
[1] = base (source of basic counter ion) used in salt screening, Table 1; cited from earlier work
[2] = Measured pKa of bimatoprost acid, used for the Henderson-Hasselbalch fit; type: physicochemical; conditions: measured pKa used to fit solubility vs. pH plot
[3] = Gravimetric vapor sorption (GVS) analysis; type: physicochemical
Experimental: The salt was then crystallized from ethyl acetate as follows. The lyophilized solid sample in ethyl acetate was subjected to initial heat/cool cycles using an Anachem React-Array. The sample was then subjected to three heat/cool cycles by using the following procedure: heating to 50° C. at 5° C./min, holding at 50° C. for 30 minutes, followed by cooling to 0° C. at 0.1° C./min, holding at 0° C. for 1 hour under constant stirring at 500 rpm. The recovered material (crystalline form 1) was analyzed by XRPD (FIG. 6), ^1H NMR, thermal analysis, and gravimetric vapor sorption (GVS) analysis, as summarized in Table 2.
Without being bound by any particular theory, the significant uptake of moisture may be a result of the large specific surface area of the material. On desorption, the adsorbed water was rapidly lost with no equilibrium established. At the end of the gravimetric vapor sorption (GVS) cycle, at 40% RH, the overall sample mass increased by 5 wt %.

[4] = Physical stability on storage at controlled temperature/relative humidity; type: physicochemical
[5] = pH-solubility determination (shake flask in aqueous media, HPLC quantitation); type: physicochemical; conditions: thermodynamic from solid
Experimental: The pH was checked, and adjusted if necessary, at intervals of 1, 5, 23, 28 and 47 hrs. An aliquot of sample was taken off at 24 hrs and the final pH was recorded. The suspension was then filtered through a glass fiber C filter. The filtrate was then diluted by an appropriate factor. This was repeated at 48 hours. Quantitation was by HPLC with reference to 6 standard solutions of concentrations between 0.3873-0.0008 mg/ml dissolved in 66:21:13 H2O:ACN:MeOH.

[6] = Dissolution rate compared with the free acid; type: physicochemical; conditions: compared with bimatoprost free acid

For `CCN(CC)CCO` [2-diethylamino ethanol], the pKa [1] is given as 9.58.
In the case of `C[N+](C)(C)CCO` [Choline], the pKa [1] is given as 11.00.
For `NC(=O)NCCC[C@H](N)C(=O)O` [Citrulline], the pKa [1] is given as 7.00.
In the case of `NCCN` [Ethylenediamine], the pKa [1] is given as 10.09.
For `OCCN1CCOCC1` [Hydroxyethyl-morpholine], the pKa [1] is given as 7.39.
For `CCNC[C@H](O)[C@@H](O)[C@H](O)[C@H](O)CO` [N-ethyl-glucamine], the pKa [1] is listed as 8.03.
`O=C(O)CCC/C=C\C[C@@H]1[C@@H](/C=C/[C@@H](O)CCc2ccccc2)[C@H](O)C[C@@H]1O` [bimatoprost acid, (Z)-7-[3,5-Dihydroxy-2-((E)-3-hydroxy-5-phenyl-pent-1-enyl)-cyclopentyl]-hept-5-enoic acid] showed a pKa [2] of 4.76.
In the case of `O=C(O)CCC/C=C\C[C@@H]1[C@@H](/C=C/[C@@H](O)CCc2ccccc2)[C@H](O)C[C@@H]1O` [tromethamine salt of (Z)-7-[3,5-Dihydroxy-2-((E)-3-hydroxy-5-phenyl-pent-1-enyl)-cyclopentyl]-hept-5-enoic acid], the GVS analysis result ([3]; 90% RH) is reported as 90% RH, no deliquescence, no hydrate, the “overall sample mass increase at the end of the GVS cycle” value ([3]; at 40% RH, end of GVS cycle) is reported as 5 wt % and the “XRPD re-analysis of the sample post GVS analysis (form change)” value ([3]; post GVS analysis, FIG. 3) is reported as “no change in the crystalline Form 1”. The “moisture uptake behaviour on storage” value ([3]; stored at or above 80% RH) was “behaves hygroscopically, with significant moisture uptake observed”, the “physically stable for (time)” value ([4]; 25° C./60% relative humidity (RH), open container closure) was > 3 months and the “physically stable for (time)” value ([4]; 40° C./75% RH, closed container closure) was > 3 months. The solubility thermodynamic ([5]; 25 °C, aqueous buffer, at pH 6.8, read-out: solubility) was ~250 mg/mL, the solubility at 48 h ([5]; 25 °C, pH 2, aqueous buffer, pH 2 (solubility of the free acid), 25° C., FIG. 5, read-out: intrinsic solubility) was 1.39 mg/mL and the solubility at 48 h ([5]; 25 °C, pH 6.5, aqueous buffer, at pH 6.5, see FIG. 5, read-out: solubility) was ≥ 250 mg/mL. For the same compound, the solubility at 48 h ([5]; 25 °C, pH 6.5, aqueous buffer, pH above 6.5, 25° C., FIG. 5, read-out: solubility of the salt) was > 250 mg/mL, the solubility thermodynamic ([5]; pH 6.5, aqueous buffer, pH above 6.5, 25° C., FIG. 5, read-out: solubility of the salt) was ≥ 250 mg/mL and the “dissolution rate relative to the free acid” value [6] was “faster dissolution rate than the free acid”.
